Experimental data as given in patent publication US20230101803A1, “3CLPRO-TARGETING PHILLYRIN, DERIVATIVE THEREOF, AND USE THEREOF AGAINST NOVEL CORONAVIRUS” (DALIAN FUSHENG NATURAL MEDICINE DEVELOPMENT CO., LTD., priority 2020, published 2023).
Read-outs that look alike come from different tables or passages of the source.

Legend:
HCoV-229E = experiment: CPE inhibition of HCoV-229E in vitro (process of first embodiment); format: cell-based
[1] = target: SARS-CoV-2 3CL pro protein (Severe acute respiratory syndrome coronavirus 2, UniProt P0DTD1); format: binding; conditions: 3CL pro protein peak at 278 nm; protein 10^−5 M, compound 10^−4 M
SARS-CoV-2 virus [2] = experiment: Death protection of hACE2 mice infected with novel coronavirus; format: in vivo, hACE2 transgenic C57BL/6 mice; conditions: positive control 50 mg/kg
Description: Except for administrating PBS to the mice in the normal group by nasal drip, the mice in other groups were infected with 10^5 PFU of SARS-CoV-2 virus by nasal drip. […] Changes in body weight were recorded every day after infection, and 5-day mortality was calculated.

SARS-CoV-2 virus [3] = experiment: Viral titer in lung tissues of novel coronavirus-infected mice; format: in vivo, ACE2 transgenic C57BL/6 mice; conditions: positive control 50 mg/kg, fifth day after infection
Text: (§1) Mice: hACE2 mice, 6-7 weeks old, 20-40 g, 120 males in total, laboratory animal supplier: Jiangsu Gempharmatech Co., Ltd.; laboratory animal production license: SOCK (Su) 2018-0008; laboratory animal certificate No.: No.320727201100243581; diets supplier: Jiangsu Medicience Biopharmaceutical Co., Ltd.
(§2) Except for administrating PBS to the mice in the normal group by nasal drip, the mice in other groups were infected with 10^5 PFU of SARS-CoV-2 virus by nasal drip. Two hours after infection, phillyrin was intragastrically administrated to the mice in the administrating groups, once a day, for 5 consecutive days. On the fifth day after infection, the animals were dissected to take lungs for tissue homogenization to test the viral titer. Total RNA was extracted from the supernatant of lung tissue homogenate by Trizol method, and the mRNA expression of related inflammatory factors was detected by RT-qPCR.

IL-1β = IL-1β mRNA expression in lung homogenate of infected mice (RT-qPCR); format: in vivo, ACE2 transgenic C57BL/6 mice; conditions: positive control 50 mg/kg, fifth day after infection
Text: as §1, §2

IFN-γ = IFN-γ mRNA expression in lung homogenate of infected mice (RT-qPCR); format: in vivo, ACE2 transgenic C57BL/6 mice; conditions: positive control 50 mg/kg, fifth day after infection
Text: as §1, §2

IFN-α = IFN-α mRNA expression in lung homogenate of infected mice (RT-qPCR); format: in vivo, ACE2 transgenic C57BL/6 mice; conditions: positive control 50 mg/kg, fifth day after infection
Text: as §1, §2

MCP-1 = MCP-1 mRNA expression in lung homogenate of infected mice (RT-qPCR); format: in vivo, ACE2 transgenic C57BL/6 mice; conditions: positive control 50 mg/kg, fifth day after infection
Text: as §1, §2

## phillyrin [KD-1]
HCoV-229E
  inhibitory effect (compared in the same study): worse
[1]
  change of UV-Vis absorbance of 3CL pro protein after compound was added: the absorbance was increased and the peak shifted

## COc1cc([C@H]2OC[C@H]3[C@@H]2CO[C@H]3c2ccc(OC)c(OC)c2)ccc1O [phillygenin]
HCoV-229E; HCoV-229E, compared with the composition
  inhibitory effect (compared in the same study): worse

## CCC(CC)COC(=O)[C@H](C)N[P@](=O)(OC[C@H]1O[C@@](C#N)(c2ccc3c(N)ncnn23)[C@H](O)[C@@H]1O)Oc1ccccc1 [Remdesivir]
SARS-CoV-2 virus [2]
  Mean survival days: 4.86 ± 0.38 days
  Survival rate (%): 87.50%
SARS-CoV-2 virus [3]
  Viral titer in lung (Log10): 1.68 ± 0.45 Log10
IL-1β
  IL-1β mRNA expression in lung homogenate: 7.41 ± 5.86
IFN-γ
  IFN-γ mRNA expression in lung homogenate: 173.79 ± 84.84
IFN-α
  IFN-α mRNA expression in lung homogenate: 69.99 ± 53.20
MCP-1
  MCP-1 mRNA expression in lung homogenate: 7.31 ± 5.14
